ChEMBL document CHEMBL5532666 (J Med Chem, 2024)
The source made the active and inactive calls. No cut-off for these calls is given here.

Experiments:
LIM domain kinase 2 = LIM domain kinase 2 (Homo sapiens, UniProt P53671); assay: Binding affinity to LIMK2 (unknown origin) expressed in permeabilized HEK293T cells incubated for 2 hrs by NanoBRET assay; type: cell-based
[1] = Toxicity in human HCT-116 cells expressing FUCCI assessed as reduction in cell viability at 1 uM measured after 48 hrs by Hoechst33342 staining based analysis; conditions: hct-116, 48 h
[2] = molecular target: T1, Serine/threonine-protein kinase 3 (Homo sapiens) (UniProt Q13188); conditions: dose 10.0 µM
T1 sequence (whole entry): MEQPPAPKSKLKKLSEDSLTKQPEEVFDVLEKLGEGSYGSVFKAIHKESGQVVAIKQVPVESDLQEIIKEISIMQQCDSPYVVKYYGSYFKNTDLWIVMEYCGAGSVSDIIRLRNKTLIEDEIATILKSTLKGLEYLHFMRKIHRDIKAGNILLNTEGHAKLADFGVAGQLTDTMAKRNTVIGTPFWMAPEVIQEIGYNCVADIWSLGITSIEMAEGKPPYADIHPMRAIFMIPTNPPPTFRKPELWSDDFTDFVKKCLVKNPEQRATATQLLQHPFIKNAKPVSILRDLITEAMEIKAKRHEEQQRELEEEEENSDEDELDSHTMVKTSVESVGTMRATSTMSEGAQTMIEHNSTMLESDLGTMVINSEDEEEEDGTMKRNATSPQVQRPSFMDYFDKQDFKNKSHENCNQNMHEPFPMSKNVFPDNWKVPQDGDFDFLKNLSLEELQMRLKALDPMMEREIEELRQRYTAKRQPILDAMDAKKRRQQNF
Description: Binding affinity to recombinant MST2 (unknown origin) kinase domain assessed as thermal stabilization by measuring change in melting temperature at 10 uM by DSF analysis

[3] = molecular target: T2, Serine/threonine-protein kinase 26 (Homo sapiens, UniProt Q9P289); conditions: dose 10.0 µM
Target sequence in this assay (Q9P289 2-416 limits assumed): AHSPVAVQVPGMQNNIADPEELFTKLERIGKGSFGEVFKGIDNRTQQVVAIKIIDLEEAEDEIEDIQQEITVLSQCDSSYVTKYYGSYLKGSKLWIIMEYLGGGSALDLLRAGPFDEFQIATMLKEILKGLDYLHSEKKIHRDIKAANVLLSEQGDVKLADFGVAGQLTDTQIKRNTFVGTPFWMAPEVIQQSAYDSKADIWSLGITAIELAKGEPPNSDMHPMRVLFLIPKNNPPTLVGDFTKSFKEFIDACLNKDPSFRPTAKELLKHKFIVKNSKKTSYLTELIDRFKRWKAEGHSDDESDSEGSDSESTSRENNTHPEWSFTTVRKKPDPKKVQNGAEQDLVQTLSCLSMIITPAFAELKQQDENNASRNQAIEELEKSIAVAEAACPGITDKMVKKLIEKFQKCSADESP
Description: Binding affinity to recombinant MST4 (unknown origin) kinase domain assessed as thermal stabilization by measuring change in melting temperature at 10 uM by DSF analysis

[4] = molecular target: T2, Serine/threonine-protein kinase 26; assay: Binding affinity to N-terminal 6His-tagged TEV fused MST4 (unknown origin) expressed in Escherichia coli BL21 (DE3) cells assessed as dissociation constant by ITC analysis
Target sequence in this assay (Q9P289 whole entry, the tested form may be a part): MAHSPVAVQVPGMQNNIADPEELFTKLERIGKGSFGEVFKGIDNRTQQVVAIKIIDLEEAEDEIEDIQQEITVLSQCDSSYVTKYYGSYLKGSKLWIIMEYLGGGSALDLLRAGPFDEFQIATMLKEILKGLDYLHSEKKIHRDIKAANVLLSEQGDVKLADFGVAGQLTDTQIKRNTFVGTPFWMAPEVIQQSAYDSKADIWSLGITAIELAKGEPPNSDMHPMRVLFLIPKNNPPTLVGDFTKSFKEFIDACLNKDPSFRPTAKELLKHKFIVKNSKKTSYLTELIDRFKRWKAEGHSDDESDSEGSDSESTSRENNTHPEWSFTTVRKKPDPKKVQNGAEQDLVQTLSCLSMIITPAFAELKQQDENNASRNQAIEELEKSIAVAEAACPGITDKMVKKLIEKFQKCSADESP

LIM domain kinase 1 [5] = molecular target: T3, LIM domain kinase 1 (Homo sapiens, UniProt P53667); assay: Binding affinity to LIMK1 (unknown origin) expressed in permeabilized HEK293T cells incubated for 2 hrs by NanoBRET assay; type: cell-based
Target sequence in this assay (P53667 whole entry, the tested form may be a part): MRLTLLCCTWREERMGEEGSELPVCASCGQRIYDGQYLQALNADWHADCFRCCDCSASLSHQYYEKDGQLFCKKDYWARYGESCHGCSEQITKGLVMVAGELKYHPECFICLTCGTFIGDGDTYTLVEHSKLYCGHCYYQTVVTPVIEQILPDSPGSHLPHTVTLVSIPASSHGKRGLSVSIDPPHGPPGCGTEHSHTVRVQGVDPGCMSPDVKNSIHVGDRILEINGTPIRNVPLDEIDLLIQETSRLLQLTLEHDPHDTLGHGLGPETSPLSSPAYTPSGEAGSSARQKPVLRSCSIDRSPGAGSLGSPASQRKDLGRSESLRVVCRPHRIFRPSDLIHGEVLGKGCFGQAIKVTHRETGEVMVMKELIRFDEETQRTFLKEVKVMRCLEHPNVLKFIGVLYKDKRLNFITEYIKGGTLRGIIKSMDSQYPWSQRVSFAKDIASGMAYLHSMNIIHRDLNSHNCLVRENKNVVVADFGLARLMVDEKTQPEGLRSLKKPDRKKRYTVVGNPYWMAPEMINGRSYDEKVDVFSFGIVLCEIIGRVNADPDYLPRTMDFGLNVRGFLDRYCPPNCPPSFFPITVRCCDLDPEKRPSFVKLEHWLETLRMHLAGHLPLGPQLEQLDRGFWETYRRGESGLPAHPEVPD

[6] = Toxicity in human HCT-116 cells expressing FUCCI assessed as cells with healthy nuclei at 1 to 10 uM measured after 24 hrs by Hoechst33342 staining based analysis relative to control; type: cell-based; conditions: hct-116, 24 h, dose 1-10 µM
[7] = molecular target: T2, Serine/threonine-protein kinase 26; assay: Binding affinity to C-terminal full length human MST4 expressed in permeabilized HEK293T cells incubated for 2 hrs by NanoBRET assay; type: cell-based
Target sequence in this assay (Q9P289 whole entry, the tested form may be a part): as the sequence (Q9P289 whole entry, the tested form may be a part) above

[8] = molecular target: T4, Serine/threonine-protein kinase 3 (Homo sapiens, UniProt Q13188); assay: Binding affinity to N-terminal full length human MST2 expressed in intact HEK293T cells incubated for 2 hrs by NanoBRET assay; type: cell-based
T4 sequence (Q13188 whole entry): T1 sequence (whole entry)

LIM domain kinase 1 [9] = molecular target: T3, LIM domain kinase 1; assay: Inhibition of wildtype LIMK1 (unknown origin) assessed as residual activity at 1 uM relative to control
Target sequence in this assay (P53667 whole entry, looked up, the tested form may be a part): as the sequence (P53667 whole entry, the tested form may be a part) above

HCT-116 [10] = assay: Cell cycle arrest in human HCT-116 cells expressing […] assessed as G1 phase cells at 10 uM incubated for 72 hrs by Hoechst33342 staining based analysis (reference value: 52%); type: functional
[11] = molecular target: T5, Aurora kinase A (Homo sapiens) (UniProt O14965); assay: Binding affinity to STK6 (unknown origin) assessed as thermal stabilization by measuring change in melting temperature by DSF analysis
T5 sequence (whole entry): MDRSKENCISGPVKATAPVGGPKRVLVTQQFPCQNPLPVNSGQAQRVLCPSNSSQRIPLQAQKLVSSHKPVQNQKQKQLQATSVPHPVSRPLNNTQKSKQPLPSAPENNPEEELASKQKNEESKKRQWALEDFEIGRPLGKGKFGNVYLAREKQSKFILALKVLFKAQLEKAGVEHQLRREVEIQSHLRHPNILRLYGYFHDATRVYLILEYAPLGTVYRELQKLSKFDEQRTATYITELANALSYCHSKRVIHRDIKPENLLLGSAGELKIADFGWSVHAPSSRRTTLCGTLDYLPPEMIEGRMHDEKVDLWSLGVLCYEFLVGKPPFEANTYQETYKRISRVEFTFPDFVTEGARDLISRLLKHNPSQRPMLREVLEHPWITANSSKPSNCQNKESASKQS

[12] = Toxicity in human HCT-116 cells expressing FUCCI assessed as normalized cell count at 10 uM measured after 72 hrs by Hoechst33342 staining based analysis relative to control; conditions: read-out: Activity
[13] = molecular target: T2, Serine/threonine-protein kinase 26; assay: Binding affinity to N-terminal 6His-tagged TEV fused MST4 (unknown origin) expressed in Escherichia coli BL21 (DE3) cells assessed as change in binding enthalpy by ITC analysis
Target sequence in this assay (Q9P289 2-416 limits assumed): as the sequence (Q9P289 2-416 limits assumed) above

HCT-116 [14] = assay: Cell cycle arrest in human HCT-116 cells expressing […] assessed as S phase cells at 10 uM incubated for 72 hrs by Hoechst33342 staining based analysis relative to control; type: functional
HCT-116 [15] = assay: Cell cycle arrest in human HCT-116 cells expressing […] assessed as G2/M phase cells at 10 uM incubated for 72 hrs by Hoechst33342 staining based analysis (reference value: 38%); type: functional
[16] = molecular target: T2, Serine/threonine-protein kinase 26; assay: Inhibition of wildtype MST4 (unknown origin) assessed as residual activity at 1 uM relative to control
Target sequence in this assay (Q9P289 2-416 limits assumed): as above

[17] = molecular target: T6, Serine/threonine-protein kinase RIO1 (Homo sapiens) (UniProt Q9BRS2); assay: Binding affinity to RIOK1 (unknown origin) assessed as thermal stabilization by measuring change in melting temperature by DSF analysis
T6 sequence (whole entry): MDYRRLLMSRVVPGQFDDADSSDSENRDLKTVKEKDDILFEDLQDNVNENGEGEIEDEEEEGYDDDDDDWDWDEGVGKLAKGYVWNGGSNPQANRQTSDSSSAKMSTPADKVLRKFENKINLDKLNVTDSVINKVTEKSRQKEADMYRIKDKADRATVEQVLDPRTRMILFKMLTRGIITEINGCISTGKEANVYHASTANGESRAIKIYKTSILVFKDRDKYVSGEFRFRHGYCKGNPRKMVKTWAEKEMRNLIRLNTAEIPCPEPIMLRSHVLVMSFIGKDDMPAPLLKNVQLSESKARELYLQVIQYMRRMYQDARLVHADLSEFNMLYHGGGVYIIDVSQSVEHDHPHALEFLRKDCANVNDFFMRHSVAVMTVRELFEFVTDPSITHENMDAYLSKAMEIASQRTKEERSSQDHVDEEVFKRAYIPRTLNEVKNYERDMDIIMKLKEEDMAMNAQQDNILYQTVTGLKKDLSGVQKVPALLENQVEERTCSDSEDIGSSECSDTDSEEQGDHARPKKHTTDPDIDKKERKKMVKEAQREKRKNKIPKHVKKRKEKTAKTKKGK

[18] = Metabolic stability in Sprague-Dawley rat liver microsomes assessed as parent compound remaining at 10 uM preincubated with NADPH for 5 mins followed by microsomal addition and measured upto 60 mins by HPLC analysis; type: ADME, Microsome; conditions: time < 65 min, read-out: Stability
[19] = molecular target: T2, Serine/threonine-protein kinase 26; assay: Binding affinity to C-terminal full length human MST4 expressed in intact HEK293T cells incubated for 2 hrs by NanoBRET assay; type: cell-based
Target sequence in this assay (Q9P289 whole entry, the tested form may be a part): as the sequence (Q9P289 whole entry, the tested form may be a part) above

Chain of LIM domain kinase 2 (P53671 whole entry, the tested form may be a part): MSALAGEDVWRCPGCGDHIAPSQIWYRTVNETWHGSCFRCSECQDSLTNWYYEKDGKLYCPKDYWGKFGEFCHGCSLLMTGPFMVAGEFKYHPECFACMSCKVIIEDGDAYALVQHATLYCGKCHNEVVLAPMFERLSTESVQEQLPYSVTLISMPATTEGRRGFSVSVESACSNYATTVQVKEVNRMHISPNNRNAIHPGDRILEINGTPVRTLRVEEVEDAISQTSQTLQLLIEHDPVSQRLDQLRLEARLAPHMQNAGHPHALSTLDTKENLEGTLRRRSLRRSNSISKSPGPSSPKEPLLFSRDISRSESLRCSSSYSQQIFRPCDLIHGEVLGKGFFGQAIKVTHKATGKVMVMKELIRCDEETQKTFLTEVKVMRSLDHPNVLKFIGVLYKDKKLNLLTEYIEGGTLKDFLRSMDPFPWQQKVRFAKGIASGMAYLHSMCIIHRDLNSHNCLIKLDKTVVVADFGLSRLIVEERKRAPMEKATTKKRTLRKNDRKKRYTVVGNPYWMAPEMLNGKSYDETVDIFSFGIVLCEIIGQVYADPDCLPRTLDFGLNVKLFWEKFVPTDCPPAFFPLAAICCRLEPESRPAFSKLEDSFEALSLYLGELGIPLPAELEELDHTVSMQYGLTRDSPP

What does the source list for `O=C1NCCCCCNc2nc(c3ccccc3n2)Nc2cc1[nH]n2`?
EC50 (LIM domain kinase 2): 1 µM; Activity [1]: Non-Toxic; ΔTm [2]: 1.1 °C; ΔTm [3]: 7.4 °C; Kd [4]: 0.115 µM; EC50 (LIM domain kinase 1 [5]): 2.48 µM; Activity [6]: 80%; EC50 [7]: 0.36 µM; EC50 [8]: > 50 µM; Activity (LIM domain kinase 1 [9]): 36.6%; Activity (HCT-116 [10]): 40%; ΔTm [11]: 5.1 °C; viability at 72 h, 10 µM [12]: < 30%; Activity [13]: Active; Activity (HCT-116 [14]): 27%; Activity (HCT-116 [15]): 33%; Activity [16]: 18%; ΔTm [17]: 5.1 °C; remaining at 1 h, 10 µM [18]: 88%; EC50 [19]: 1.43 µM
